Measured values from ChEMBL document CHEMBL3763102, “4-Aryl-3-arylsulfonyl-quinolines as negative allosteric modulators of metabotropic GluR5 receptors: From HTS hit to development candidate” (Bioorg Med Chem Lett, 2016).
The source made the active and inactive calls. The calls are words filed in the database; no cut-off is given here.

Key:
Liver microsome [1] = experiment: Intrinsic clearance in Wistar rat liver microsomes at 2.5 uM; type: ADME
[2] = target: T1, Metabotropic glutamate receptor 5 (Rattus norvegicus, UniProt P31424); experiment: Displacement of [3H]MPEP from rat mGlu5 receptor expressed in rat cerebrocortical membrane measured after 1 hr; type: cell membranes
Liver microsome [3] = experiment: Intrinsic clearance in human liver microsomes at 2.5 uM; type: ADME
[4] = target: T2, Metabotropic glutamate receptor 5 (Homo sapiens, UniProt P41594); experiment: Displacement of [3H]MPEP from recombinant human mGluR5a expressed in A18 cells measured after 1 hr; type: cell-based
Homo sapiens [5] = experiment: Toxicity in human assessed as change in ECG administered as bid for 10 to 14 days by multiple ascending dose study; type: organism-based; conditions: in vivo
Homo sapiens [6] = experiment: Toxicity in human assessed as suicidal ideation and behavior administered as bid for 10 to 14 days by multiple ascending dose study; type: organism-based; conditions: in vivo
Homo sapiens [7] = experiment: Toxicity in human assessed as suicidal ideation and behavior administered as qd for 10 to 14 days by multiple ascending dose study; type: organism-based; conditions: in vivo
Homo sapiens [8] = species: Homo sapiens; experiment: Toxicity in human at 1 to 120 mg by single ascending dose study; type: organism-based; conditions: in vivo
Homo sapiens [9] = experiment: Toxicity in human assessed as change in ECG administered as qd for 10 to 14 days by multiple ascending dose study; type: organism-based; conditions: in vivo
Rattus norvegicus [10] = experiment: Anxiolytic activity in water deprived rat assessed as increase in number of accepted shocks at 1 mg/kg, po after 1 hr by Vogel punished drinking test; type: functional, organism-based
Rattus norvegicus [11] = experiment: Anxiolytic activity in water deprived rat assessed as increase in number of accepted shocks at 10 mg/kg, po after 1 hr by Vogel punished drinking test; type: functional, organism-based
[12] = target: T2, Metabotropic glutamate receptor 5; experiment: Displacement of [3H]-MPEP from human mGlu5 receptor expressed in HEK293 cell membranes after 1 hr by scintillation counting analysis
[13] = target: T1, Metabotropic glutamate receptor 5; experiment: Displacement of [3H]-MPEP from rat mGlu5 receptor expressed in HEK293 cell membranes after 1 hr by scintillation counting analysis

T2 sequence (P41594 whole entry): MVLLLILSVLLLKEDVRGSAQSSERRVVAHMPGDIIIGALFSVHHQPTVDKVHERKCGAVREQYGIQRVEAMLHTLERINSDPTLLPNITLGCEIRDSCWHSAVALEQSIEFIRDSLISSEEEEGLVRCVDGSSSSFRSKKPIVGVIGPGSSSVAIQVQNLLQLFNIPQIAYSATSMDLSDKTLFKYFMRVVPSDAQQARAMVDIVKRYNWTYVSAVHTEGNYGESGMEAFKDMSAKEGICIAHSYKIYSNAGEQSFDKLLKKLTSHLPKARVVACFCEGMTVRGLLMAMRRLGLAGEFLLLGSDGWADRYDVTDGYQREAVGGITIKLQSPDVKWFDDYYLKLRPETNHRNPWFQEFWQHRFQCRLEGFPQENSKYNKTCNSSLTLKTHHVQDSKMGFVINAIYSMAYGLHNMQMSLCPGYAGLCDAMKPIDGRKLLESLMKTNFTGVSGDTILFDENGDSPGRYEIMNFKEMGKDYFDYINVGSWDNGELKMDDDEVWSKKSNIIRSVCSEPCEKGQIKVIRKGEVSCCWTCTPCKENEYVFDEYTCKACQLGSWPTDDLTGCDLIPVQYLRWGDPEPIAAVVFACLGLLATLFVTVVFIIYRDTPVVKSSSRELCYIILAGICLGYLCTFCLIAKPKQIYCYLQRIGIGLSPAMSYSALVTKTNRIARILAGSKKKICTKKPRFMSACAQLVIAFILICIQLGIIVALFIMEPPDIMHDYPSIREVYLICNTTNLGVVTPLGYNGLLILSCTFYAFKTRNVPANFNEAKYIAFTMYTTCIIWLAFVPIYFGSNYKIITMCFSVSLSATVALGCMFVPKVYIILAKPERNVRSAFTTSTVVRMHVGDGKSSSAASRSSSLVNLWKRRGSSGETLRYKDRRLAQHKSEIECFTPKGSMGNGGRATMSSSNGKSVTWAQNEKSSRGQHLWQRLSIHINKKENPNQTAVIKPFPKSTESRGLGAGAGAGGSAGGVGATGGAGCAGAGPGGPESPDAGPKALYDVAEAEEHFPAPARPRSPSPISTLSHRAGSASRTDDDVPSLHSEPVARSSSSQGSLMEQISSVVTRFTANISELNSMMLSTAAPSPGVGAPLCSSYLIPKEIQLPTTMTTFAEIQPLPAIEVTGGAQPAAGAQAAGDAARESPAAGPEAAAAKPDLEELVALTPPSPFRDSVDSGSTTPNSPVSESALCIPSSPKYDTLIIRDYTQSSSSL
T1 sequence (P31424 whole entry): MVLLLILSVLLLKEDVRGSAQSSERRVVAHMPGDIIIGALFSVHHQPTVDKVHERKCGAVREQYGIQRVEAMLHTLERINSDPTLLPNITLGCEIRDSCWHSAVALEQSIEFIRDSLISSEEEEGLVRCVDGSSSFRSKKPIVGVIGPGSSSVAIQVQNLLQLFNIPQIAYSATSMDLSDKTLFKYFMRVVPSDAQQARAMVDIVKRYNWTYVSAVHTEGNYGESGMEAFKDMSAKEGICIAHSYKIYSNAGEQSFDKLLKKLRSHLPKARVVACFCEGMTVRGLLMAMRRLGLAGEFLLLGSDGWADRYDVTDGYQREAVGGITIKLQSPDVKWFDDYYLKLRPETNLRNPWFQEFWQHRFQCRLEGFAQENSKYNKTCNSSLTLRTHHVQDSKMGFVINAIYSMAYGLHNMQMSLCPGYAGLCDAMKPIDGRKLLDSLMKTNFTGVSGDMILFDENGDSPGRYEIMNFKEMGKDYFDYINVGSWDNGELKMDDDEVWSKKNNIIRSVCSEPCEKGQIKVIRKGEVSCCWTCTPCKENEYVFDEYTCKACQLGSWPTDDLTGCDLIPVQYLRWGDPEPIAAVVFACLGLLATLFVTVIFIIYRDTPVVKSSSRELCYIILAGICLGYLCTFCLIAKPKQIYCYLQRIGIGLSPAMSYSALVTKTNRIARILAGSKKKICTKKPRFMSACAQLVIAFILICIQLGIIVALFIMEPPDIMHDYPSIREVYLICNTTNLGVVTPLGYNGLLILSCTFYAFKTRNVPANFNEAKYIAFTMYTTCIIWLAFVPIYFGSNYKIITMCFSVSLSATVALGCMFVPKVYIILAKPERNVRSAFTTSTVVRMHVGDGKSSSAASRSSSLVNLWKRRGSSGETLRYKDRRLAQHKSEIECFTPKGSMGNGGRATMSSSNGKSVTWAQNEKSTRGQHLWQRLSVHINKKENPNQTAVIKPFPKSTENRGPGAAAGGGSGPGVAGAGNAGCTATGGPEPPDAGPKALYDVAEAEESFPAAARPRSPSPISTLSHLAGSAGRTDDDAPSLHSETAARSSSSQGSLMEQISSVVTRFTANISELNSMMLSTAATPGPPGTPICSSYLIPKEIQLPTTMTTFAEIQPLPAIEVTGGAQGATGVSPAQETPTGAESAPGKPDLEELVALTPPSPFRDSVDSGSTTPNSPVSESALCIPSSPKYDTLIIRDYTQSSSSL

CLH (Liver microsome [1]) | Ki [2] | CLH (Liver microsome [3]) | SMILES | also measured
0.88 mL/min/g | 5.2 nM | 0.5 mL/min/g | O=S(=O)(c1ccc(Cl)c(F)c1)c1cnc2cc(F)ccc2c1-c1ccc(F)cc1 | –
17.4 mL/min/g | 22 nM | 3.54 mL/min/g | Cc1ccc(S(=O)(=O)c2cnc3ccccc3c2N2CCC(C)CC2)cc1 | –
1.03 mL/min/g | 11.5 nM | 0.2 mL/min/g | O=S(=O)(c1cc(Cl)cc(Cl)c1)c1cnc2cc(F)ccc2c1-c1ccc(F)cc1 | –
18 mL/min/g | 68 nM | 3.37 mL/min/g | Cc1ccc(S(=O)(=O)c2cnc3ccccc3c2N2CCOCC2)cc1C | Ki [4]: 52 nM
0.25 mL/min/g | 5.3 nM | 0.31 mL/min/g | N#Cc1cccc(S(=O)(=O)c2cnc3cc(F)ccc3c2-c2ccc(Cl)cc2)c1 | Activity (Homo sapiens [5]): Non-toxic; Activity (Homo sapiens [6]): Non-toxic; Activity (Homo sapiens [7]): Non-toxic; Activity (Homo sapiens [8]): Non-toxic; Activity (Homo sapiens [9]): Non-toxic; Activity (Rattus norvegicus [10]): Active
– | – | – | Cc1nc(C#Cc2cccnc2)cs1 | Activity (Rattus norvegicus [11]): Active
– | – | – | CN1CC(=O)N=C1NC(=O)Nc1cccc(Cl)c1 [FENOBAM ANHYDROUS] | IC50 [12]: 51 nM; IC50 [13]: 51 nM
0.19 mL/min/g | 8.4 nM | 0.28 mL/min/g | O=S(=O)(c1ccc(F)c(F)c1)c1cnc2c(F)cccc2c1-c1ccc(Cl)cc1 | –
13.8 mL/min/g | 15 nM | 2.31 mL/min/g | Cc1ccc(S(=O)(=O)c2sc3ncccc3c2-c2ccc(Cl)cc2)cc1 | –
17.5 mL/min/g | 9.5 nM | 2.12 mL/min/g | Cc1ccc(S(=O)(=O)c2cnc3ccccc3c2-c2ccc(Cl)cc2)cc1 | Ki [4]: 17 nM
